Common to all, as to type: functional
One test concerns CAKI-1. As to the kind of experiment: Cytotoxicity against human Caki1 cells assessed as cellular growth at 10 uM by SRB assay. Background: In SRB staining, fixed cells bind dye roughly in proportion to their protein.
In a further test the test system is HL-60(TB). The test is described as follows: Cytotoxicity against human HL-60(TB) cells assessed as cellular growth at 10 uM by SRB assay.
The subject of the next test is MDA-MB-231. As to the kind of experiment: Cytotoxicity against human MDA-MB-231 cells assessed as cellular growth at 10 uM by SRB assay.
The next test relates to Hs-578T. The test is described as follows: Cytotoxicity against human Hs578T cells assessed as cellular growth at 10 uM by SRB assay.
In the next test the test system is HCT-116. The test is described as follows: Cytotoxicity against human HCT116 cells assessed as cellular growth at 10 uM by SRB assay.
Another test deals with OVCAR-3. As to the kind of experiment: Cytotoxicity against human OVCAR3 cells assessed as cellular growth at 10 uM by SRB assay.
Another test concerns MDA-MB-435. As to the kind of experiment: Cytotoxicity against human MDA-MB-435 cells assessed as cellular growth at 10 uM by SRB assay.
Another test concerns SW-620. The test is described as follows: Cytotoxicity against human SW620 cells assessed as cellular growth at 10 uM by SRB assay.
The test system of another test is NCI-H226. As to the kind of experiment: Cytotoxicity against human NCI-H226 cells assessed as cellular growth at 10 uM by SRB assay.
A further test relates to Malme-3M. As to the kind of experiment: Cytotoxicity against human MALME-3M cells assessed as cellular growth at 10 uM by SRB assay.
The next test has as its system SF-268. As to the kind of experiment: Cytotoxicity against human SF268 cells assessed as cellular growth at 10 uM by SRB assay.
Another test relates to SK-MEL-28. The test is described as follows: Cytotoxicity against human SK-MEL-28 cells assessed as cellular growth at 10 uM by SRB assay.
For another test, the system named is M14. The test is described as follows: Cytotoxicity against human M14 cells assessed as cellular growth at 10 uM by SRB assay.
The subject of the next test is LOX IMVI. The test is described as follows: Cytotoxicity against human LOXIMVI cells assessed as cellular growth at 10 uM by SRB assay.
A further test deals with HT-29. As to the kind of experiment: Cytotoxicity against human HT-29 cells assessed as cellular growth at 10 uM by SRB assay.
In a further test the test system is SF-539. The test is described as follows: Cytotoxicity against human SF539 cells assessed as cellular growth at 10 uM by SRB assay.
A further test concerns HOP-62. As to the kind of experiment: Cytotoxicity against human HOP62 cells assessed as cellular growth at 10 uM by SRB assay.
The next test concerns K562. The test is described as follows: Cytotoxicity against human K562 cells assessed as cellular growth at 10 uM by SRB assay.
For the next test, the system named is MOLT-4. The test is described as follows: Cytotoxicity against human MOLT4 cells assessed as cellular growth at 10 uM by SRB assay.
In another test the test system is ACHN. The test is described as follows: Cytotoxicity against human ACHN cells assessed as cellular growth at 10 uM by SRB assay.

Molecules are shown by their SMILES.

Regarding `c1ccc(-c2nc(-c3cccs3)no2)cc1`, the Activity in the test on CAKI-1 was 100.18%; in the test with HL-60(TB), 103.76%; in the test with MDA-MB-231, 77.5%; in the test on Hs-578T it was 100.69%; with HCT-116, 104.23%; in the test with OVCAR-3, 105.28%. Also, the Activity in the test with MDA-MB-435 is recorded as 113.41%; in the test with SW-620, 101.1%; in the test with NCI-H226, 91.26%; in the test with Malme-3M, 131.39%; in the test on SF-268 it was 105.23%; with SK-MEL-28, 117.87%. The Activity in the test on M14 came to 111.09%; in the test on LOX IMVI it was 99.72%; with HT-29, 108.03%; in the test with SF-539, 105.74%; with HOP-62, 98.37%; in the test on K562, 100.51%. Moreover, the results for the Activity with MOLT-4 and in the test on ACHN were 92.81% and 102.77%, respectively.
On to `Cc1ccc(C(=O)/C=C2/Nc3ccc(C)cc3OC2=O)cc1`, for which the Activity in the test on CAKI-1 was found to be 96.63%; in the test with HL-60(TB) it was 82.69%; with MDA-MB-231, 88.3%; in the test on Hs-578T, 122.96%; with HCT-116, 110.04%; with OVCAR-3, 116.56%. Further, the Activity in the test on MDA-MB-435 was determined as 106.99%; in the test on SW-620 it was 120.18%; in the test with NCI-H226, 108.24%; with Malme-3M, 114.26%; with SF-268, 110.95%; in the test with SK-MEL-28 it was 118.66%. In addition, the Activity in the test on M14 stood at 106.88%; in the test on LOX IMVI, 104.53%; in the test with HT-29, 106.8%; with SF-539, 108.44%; with HOP-62 it was 115.04%; in the test on K562 it was 95.07%. The figures for the Activity in the test with MOLT-4 and with ACHN were 83.44% and 104.27%, respectively.
`Cc1cc(C)c(NC(=O)c2sc3nc4c(cc3c2N)C(=O)CCC4)c(C)c1`: the Activity in the test with CAKI-1 is -22.19%; with HL-60(TB), 14.55%; with MDA-MB-231, 35.68%; with Hs-578T it was 17.68%; in the test with HCT-116, 23.12%; in the test on OVCAR-3, 13.17%. The Activity in the test with MDA-MB-435 is on record as -34.35%; with SW-620, 15.59%; in the test on NCI-H226, 77.05%; in the test with Malme-3M, 42.11%; in the test on SF-268, 38.6%; with SK-MEL-28, 55.98%. Also, the Activity in the test on M14 was 16.41%; in the test with LOX IMVI it was 50.61%; in the test with HT-29, 0.48%; with SF-539, -6.5%; in the test with HOP-62 it was 36.92%; with K562, 19.79%. The Activity in the test on MOLT-4 is listed as 43.03%; with ACHN, 55.26%.
As for `COc1ccc(S(=O)(=O)n2ccc(-c3ccc4c(c3)CCC(C)(C)O4)n2)cc1`, the Activity in the test on CAKI-1 was 63.3%; with HL-60(TB) it was 60.02%; in the test with MDA-MB-231, 87.67%; in the test with Hs-578T it was 97.76%; in the test on HCT-116, 68.33%; in the test on OVCAR-3, 81.18%. The Activity in the test with MDA-MB-435 came to 74.3%; in the test on SW-620 it was 90.28%; in the test with NCI-H226 it was 71.38%; with Malme-3M, 109.7%; with SF-268, 94.69%; in the test with SK-MEL-28, 98.27%. The Activity is recorded as 86.46% in the test on M14; 79.45% with LOX IMVI; 84.48% in the test on HT-29; 102.86% with SF-539; 112.43% with HOP-62; 55.64% with K562. The Activity in the test with MOLT-4 was 65.89%; in the test with ACHN it was 104.15%.
For the compound `O=C(Nc1nc2ccc(Cl)cc2s1)c1ccc(Cl)cc1`, the Activity in the test with CAKI-1 is reported as 81.52%; in the test on HL-60(TB), 100.76%; in the test with MDA-MB-231 it was 98.56%; with Hs-578T, 98.57%; in the test with HCT-116 it was 98.42%; in the test on OVCAR-3, 112.95%. Further, the Activity in the test on MDA-MB-435 is reported as 90.92%; in the test on SW-620 it was 103.76%; in the test on NCI-H226, 84.73%; in the test with Malme-3M, 110.45%; in the test on SF-268, 112.46%; in the test with SK-MEL-28, 109.14%. Besides, the Activity in the test on M14 is listed as 106.22%; in the test on LOX IMVI, 98.77%; in the test with HT-29, 107.3%; with SF-539 it was 88.34%; in the test on HOP-62, 103.16%; in the test with K562, 96.27%. The results for the Activity in the test on MOLT-4 and in the test on ACHN were 95.76% and 96.94%, respectively.
Consider `COc1ccc(NC(=O)c2sc3nc4c(cc3c2N)C(=O)CCC4)cc1`, for which the Activity turned out to be 97.06% in the test on CAKI-1; 109.37% with HL-60(TB); 116.49% in the test on MDA-MB-231; 135.57% in the test on Hs-578T; 97.11% in the test with HCT-116; 103.75% with OVCAR-3. The Activity is reported as 97.12% in the test on MDA-MB-435; 111.85% in the test on SW-620; 95.31% with NCI-H226; 102.12% in the test with Malme-3M; 109.11% in the test with SF-268; 106.67% with SK-MEL-28. Further, the Activity in the test with M14 is given as 103.89%; in the test on LOX IMVI, 100.6%; in the test on HT-29 it was 108.88%; in the test on SF-539, 102.64%; with HOP-62 it was 112.48%; in the test on K562 it was 116.6%. For the same compound, the Activity stood at 115.9% with MOLT-4 and 105.22% in the test with ACHN.
Turning to `Nc1c(C(=O)Nc2cccc(Cl)c2)sc2nc3c(cc12)C(=O)CCC3`, the Activity with CAKI-1 is on record as 40.31%; in the test with HL-60(TB), 33.11%; in the test on MDA-MB-231 it was 43.9%; with Hs-578T, 4.53%; with HCT-116 it was 27.38%; in the test with OVCAR-3 it was 10.31%. Besides, the Activity is -39.08% in the test with MDA-MB-435; 31.28% in the test with SW-620; 57.93% in the test on NCI-H226; 49.7% with Malme-3M; 63.09% in the test on SF-268; 51.4% in the test with SK-MEL-28. Besides, the Activity in the test on M14 is given as 26.93%; in the test with LOX IMVI it was 46.08%; with HT-29, 23.87%; in the test with SF-539, 27.25%; in the test with HOP-62 it was 47.04%; with K562 it was 22.78%. Further, the Activity is given as 57.06% in the test with MOLT-4 and 54.19% in the test on ACHN.
As for `O=S(=O)(Oc1ccc(-c2cnc3ccccc3n2)cc1)c1ccccc1`, the Activity in the test on CAKI-1 came to 100.14%; with HL-60(TB), 94.23%; in the test on MDA-MB-231, 105.17%; in the test with Hs-578T, 145.79%; in the test with HCT-116 it was 94.15%; with OVCAR-3, 112.06%. Also, the Activity in the test with MDA-MB-435 amounted to 96.88%; in the test with SW-620 it was 99.76%; in the test on NCI-H226, 94.97%; in the test with Malme-3M it was 92.27%; in the test on SF-268 it was 98.77%; with SK-MEL-28, 110.13%. In addition, the Activity was determined as 106.54% in the test on M14; 95.98% in the test on LOX IMVI; 78.71% in the test with HT-29; 94.38% in the test on SF-539; 106.15% in the test on HOP-62; 81.89% in the test on K562. Moreover, the Activity was found to be 75.6% in the test on MOLT-4 and 103.61% with ACHN.
With `Clc1cccc(-c2nc(-c3cccs3)no2)c1`, the Activity in the test on CAKI-1 amounted to 99.54%; in the test on HL-60(TB), 108.47%; in the test with MDA-MB-231, 84.18%; in the test with Hs-578T, 99.53%; with HCT-116, 97.8%; in the test on OVCAR-3 it was 102.94%. The Activity with MDA-MB-435 is on record as 106.73%; in the test on SW-620 it was 91.04%; in the test with NCI-H226 it was 97.3%; in the test on Malme-3M it was 111.38%; in the test on SF-268, 102.09%; with SK-MEL-28 it was 111.9%. Further, the Activity in the test with M14 turned out to be 105.36%; in the test on LOX IMVI, 94.7%; in the test with HT-29, 95.99%; in the test with SF-539, 102.16%; in the test with HOP-62, 85.92%; with K562 it was 100.73%. Besides, the Activity was 96.35% in the test on MOLT-4 and 101.08% with ACHN.
